ChEMBL document CHEMBL4270495, “Oleanane-, ursane-, and quinone methide friedelane-type triterpenoid derivatives: Recent advances in cancer treatment” (Eur J Med Chem, 2017)

Experiments:
RAW264.7 = assay: Anti-inflammatory activity in mouse RAW264.7 cells assessed as inhibition of nitric oxide production; assay type: functional, cell-based
AGS = assay: Cytotoxicity in human AGS cells assessed as reduction in cell viability incubated for 24 hrs by MTT assay; assay type: functional, cell-based
HepG2 [1] = assay: Cytotoxicity in human HepG2 cells assessed as reduction in cell viability incubated for 24 hrs by MTT assay; assay type: functional, cell-based; settings: HepG2, 24 h
HeLa [2] = assay: Cytotoxicity in human HeLa cells assessed as reduction in cell viability incubated for 24 hrs by MTT assay; assay type: functional, cell-based
[3] = Cytotoxicity in human HELF cells assessed as reduction in cell viability incubated for 24 hrs by MTT assay; assay type: cell-based
MDA-MB-231 = assay: Cytotoxicity in human MDA-MB-231 cells assessed as reduction in cell viability incubated for 24 hrs by MTT assay; assay type: functional, cell-based; settings: MDA-MB-231, 24 h
HL-60 = assay: Cytotoxicity in human HL60 cells assessed as reduction in cell viability incubated for 24 hrs by MTT assay; assay type: functional, cell-based; settings: HL-60, 24 h
HL60/ADR = assay: Cytotoxicity in human HL60/ADR cells assessed as reduction in cell viability incubated for 24 hrs by MTT assay; assay type: functional, cell-based
MCF7 = assay: Cytotoxicity in human MCF7 cells assessed as reduction in cell viability incubated for 24 hrs by MTT assay; assay type: functional, cell-based; settings: MCF7, 24 h
A549 [4] = assay: Cytotoxicity in human A549 cells assessed as reduction in cell viability incubated for 24 hrs by MTT assay; assay type: functional, cell-based; settings: A549, 24 h
A549 [5] = assay: Cytotoxicity in human A549 cells assessed as reduction in cell viability incubated for 48 hrs by MTT assay; assay type: functional, cell-based; settings: A549, 48 h
T-24 = assay: Cytotoxicity in human T24 cells assessed as reduction in cell viability incubated for 48 hrs by MTT assay; assay type: functional, cell-based; settings: T-24, 48 h
[6] = Cytotoxicity in human SPCA2 cells assessed as reduction in cell viability incubated for 48 hrs by MTT assay; assay type: functional, cell-based; settings: SPCA2, 48 h
HUVEC = assay: Cytotoxicity in HUVEC cells assessed as reduction in cell viability incubated for 48 hrs by MTT assay; assay type: cell-based; settings: Homo sapiens
SGC-7901 = assay: Cytotoxicity in human SGC7901 cells assessed as reduction in cell viability incubated for 48 hrs by MTT assay; assay type: functional, cell-based; settings: SGC-7901, 48 h
HepG2 [7] = assay: Cytotoxicity in human HepG2 cells assessed as reduction in cell viability incubated for 48 hrs by MTT assay; assay type: functional, cell-based; settings: HepG2, 48 h
HeLa [8] = assay: Cytotoxicity in human HeLa cells assessed as reduction in cell viability incubated for 48 hrs by MTT assay; assay type: functional, cell-based
A-375 = assay: Cytotoxicity in human A375 cells assessed as reduction in cell viability incubated for 24 hrs by MTT assay; assay type: functional, cell-based; settings: A-375, 24 h
NCI-H446 = assay: Cytotoxicity in human NCI-H446 cells assessed as reduction in cell viability incubated for 24 hrs by MTT assay; assay type: functional, cell-based; settings: NCI-H446, 24 h

CC1(C)CC[C@]2(C(=O)n3ccnc3)CC[C@]3(C)[C@H](C(=O)C=C4[C@@]5(C)C=C(C#N)C(=O)C(C)(C)[C@@H]5CC[C@]43C)[C@@H]2C1
IC50 (RAW264.7): 1 µM

CC(=O)O[C@H]1CC[C@]2(C)[C@H]3CC=C4[C@@H]5[C@@H](C)[C@H](C)CC[C@]5(C(=O)NCCN)CC[C@@]4(C)[C@]3(C)CC[C@H]2C1(C)C
IC50 (AGS): 14.5 µM
IC50 (HepG2 [1]): 16.3 µM
IC50 (HeLa [2]): 4.4 µM
IC50 [3]: 18.1 µM

C[C@H]1[C@H](C)CC[C@]2(C(=O)NCCN)CC[C@]3(C)C(=CC[C@@H]4[C@@]5(C)CC[C@H](O)C(C)(C)[C@@H]5CC[C@]43C)[C@H]12
IC50 (AGS): 17.7 µM
IC50 (HepG2 [1]): 13.9 µM
IC50 (HeLa [2]): 14.6 µM
IC50 [3]: 15.4 µM

COC(=O)[C@]12CC[C@@H](C)[C@H](C)[C@H]1C1=CC[C@@H]3[C@@]4(C)C=C(C#N)C(=O)C(C)(C)[C@@H]4CC[C@@]3(C)[C@]1(C)CC2
IC50 (RAW264.7): 17 µM

COC(=O)[C@]12CCC(C)(C)C[C@H]1C1=CC(=O)[C@@H]3[C@@]4(C)CCC(=O)C(C)(C)[C@@H]4CC[C@@]3(C)[C@]1(C)CC2
IC50 (MDA-MB-231): 33.2 µM
IC50 (HL-60): 2850 nM
IC50 (HL60/ADR): 7.54 µM

CC1(C)CC[C@]2(C(=O)O)CC[C@]3(C)C(=CC[C@@H]4[C@@]5(C)CC[C@H](O[C@@H]6OC[C@H](O[C@@H]7OC[C@H](O)[C@H](O)[C@H]7O)[C@H](O[C@H]7O[C@H](CO)[C@@H](O)[C@H](O)[C@@H]7O)[C@H]6O)[C@@](C)(CO)[C@@H]5CC[C@]43C)[C@H]2C1
IC50 (MCF7): > 50 µM
IC50 (A549 [4]): 17.9 µM

CCOP(=O)(OCC)C(NC(=O)[C@]12CC[C@@H](C)[C@H](C)[C@H]1C1=CC[C@@H]3[C@@]4(C)C[C@@H](OC(C)=O)[C@H](OC(C)=O)[C@@](C)(COC(C)=O)[C@@H]4CC[C@@]3(C)[C@]1(C)CC2)c1ccc(Cl)cc1 (stereo partly specified)
IC50 (A549 [5]): 15.7 µM
IC50 (T-24): 8.93 µM
IC50 [6]: 16.1 µM
IC50 (HUVEC): > 100 µM

CC(=O)O[C@H]1CC[C@]2(C)[C@H]3CC=C4[C@@H]5[C@@H](C)[C@H](C)CC[C@]5(C(=O)NCCCCN)CC[C@@]4(C)[C@]3(C)CC[C@H]2C1(C)C
IC50 (AGS): 14.1 µM
IC50 (HepG2 [1]): 16 µM
IC50 (HeLa [2]): 4.2 µM
IC50 [3]: 25.1 µM

C[C@@H]1CC[C@]2(C(=O)OCC(=O)N/N=C/c3ccc(Cl)cc3)CC[C@]3(C)C(=CC(=O)[C@@H]4[C@@]5(C)CC[C@H](O)[C@](C)(CO)[C@@H]5CC[C@]43C)[C@@H]2[C@]1(C)O
IC50 (SGC-7901): > 100 µM
IC50 (HepG2 [7]): > 100 µM
IC50 (HeLa [8]): > 100 µM

CCOP(=O)(OCC)C(NC(=O)[C@]12CC[C@@H](C)[C@H](C)[C@H]1C1=CC[C@@H]3[C@@]4(C)C[C@@H](OC(C)=O)[C@H](OC(C)=O)[C@@](C)(COC(C)=O)[C@@H]4CC[C@@]3(C)[C@]1(C)CC2)c1ccc2ccccc2c1 (stereo partly specified)
IC50 (A549 [5]): 46.3 µM
IC50 (T-24): 49.1 µM
IC50 [6]: 48.7 µM
IC50 (HUVEC): > 100 µM

COC(=O)C(CO)NC(=O)[C@]12CC[C@@H](C)[C@@](C)(O)[C@H]1C1=CC(=O)[C@@H]3[C@@]4(C)CC[C@H](OC(C)=O)[C@](C)(COC(C)=O)[C@@H]4CC[C@@]3(C)[C@]1(C)CC2 (stereo partly specified)
IC50 (HepG2 [1]): 3.41 µM
IC50 (A-375): 5.99 µM
IC50 (NCI-H446): 3.84 µM

C[C@H]1[C@H](C)CC[C@]2(C(=O)NCCCCCCN)CC[C@]3(C)C(=CC[C@@H]4[C@@]5(C)CC[C@H](O)C(C)(C)[C@@H]5CC[C@]43C)[C@H]12
IC50 (AGS): 16.6 µM
IC50 (HepG2 [1]): 13.4 µM
IC50 (HeLa [2]): 13.3 µM
IC50 [3]: 12.4 µM

CCOP(=O)(OCC)C(NC(=O)[C@]12CC[C@@H](C)[C@H](C)[C@H]1C1=CC[C@@H]3[C@@]4(C)C[C@@H](OC(C)=O)[C@H](OC(C)=O)[C@@](C)(COC(C)=O)[C@@H]4CC[C@@]3(C)[C@]1(C)CC2)c1ccccc1Cl (stereo partly specified)
IC50 (A549 [5]): 14.9 µM
IC50 (T-24): 6.59 µM
IC50 [6]: 15 µM
IC50 (HUVEC): > 100 µM

C[C@H]1[C@H](C)CC[C@]2(C#N)CC[C@]3(C)C(=CC[C@@H]4[C@@]5(C)C=C(C#N)C(=O)C(C)(C)[C@@H]5CC[C@]43C)[C@H]12
IC50 (RAW264.7): 1 to 7 µM

CC(=O)O[C@H]1CC[C@]2(C)[C@H]3CC=C4[C@@H]5[C@@H](C)[C@H](C)CC[C@]5(C(=O)NCCCCCCN)CC[C@@]4(C)[C@]3(C)CC[C@H]2C1(C)C
IC50 (AGS): 12.8 µM
IC50 (HepG2 [1]): 7.2 µM
IC50 (HeLa [2]): 3.8 µM
IC50 [3]: 14.9 µM
